Experimental findings from ChEMBL document CHEMBL5154916, “Multiparameter Optimization of Naphthyridine Derivatives as Selective α5-GABAA Receptor Negative Allosteric Modulators” (J Med Chem, 2022) are described below.

The nature of data set [1]: Thermodynamic solubility of the compound at pH 6.5. Format: physicochemical. To be noted: buffer, read-out: Therm_solubility.
The next data set deals with Cytochrome P450 2D6 (Homo sapiens, UniProt P10635). As to the kind of experiment: Inhibition of CYP2D6 (unknown origin). Format: ADME.
Data set [2] in a line: Ratio of drug level in brain to plasma in Wistar rat at 1 mg/kg, iv by HPLC-MS/MS analysis. Type of data set: ADME, organism-based. To be noted: brain and plasma, read-out: BPR.
A short description of data set [3]: Toxicity in po dosed Wistar rat assessed NOAEL by 4 days toxicology study. Type of data set: organism-based. To be noted: in vivo, time 4 day.
Data set [4] in a line: Ratio of drug level in brain to plasma in Wistar rat at 1 mg/kg, po or 1 mg/kg, iv by HPLC-MS/MS analysis. Format: ADME, organism-based. To be noted: brain and plasma, read-out: BPR.
The nature of data set [5]: […] in po dosed Wister rat assessed as motor impairment by assessing NOAEL by spontaneous motor activity test. Format: organism-based. To be noted: Wistar, in vivo.
Data set [6] in a line: Clearance in Wistar rat plasma at 1 mg/kg, iv by HPLC-MS/MS analysis. Type of data set: ADME, organism-based.
The nature of data set [7]: Thermodynamic solubility of the compound at pH 5. Type of data set: physicochemical. The settings on record: buffer, read-out: Therm_solubility.
The nature of data set [8]: Plasma protein binding in guinea pig. To be noted: read-out: PPB (converted). Format: ADME, cell-free, Cavia porcellus.
A short description of data set [9]: Apparent permeability in human Caco2 cells assessed as permeability damage ratio at 1 uM by HPLC-UV analysis. Type of data set: ADME, cell-based. The settings on record: caco-2, 1 µM. A general note: Passage across Caco-2 layers is used to estimate intestinal permeability.

Converted amounts (≈) assume the structure as drawn. Bounds are passed on as bounds.

Cytochrome P450 2D6, sequence (P10635 whole entry): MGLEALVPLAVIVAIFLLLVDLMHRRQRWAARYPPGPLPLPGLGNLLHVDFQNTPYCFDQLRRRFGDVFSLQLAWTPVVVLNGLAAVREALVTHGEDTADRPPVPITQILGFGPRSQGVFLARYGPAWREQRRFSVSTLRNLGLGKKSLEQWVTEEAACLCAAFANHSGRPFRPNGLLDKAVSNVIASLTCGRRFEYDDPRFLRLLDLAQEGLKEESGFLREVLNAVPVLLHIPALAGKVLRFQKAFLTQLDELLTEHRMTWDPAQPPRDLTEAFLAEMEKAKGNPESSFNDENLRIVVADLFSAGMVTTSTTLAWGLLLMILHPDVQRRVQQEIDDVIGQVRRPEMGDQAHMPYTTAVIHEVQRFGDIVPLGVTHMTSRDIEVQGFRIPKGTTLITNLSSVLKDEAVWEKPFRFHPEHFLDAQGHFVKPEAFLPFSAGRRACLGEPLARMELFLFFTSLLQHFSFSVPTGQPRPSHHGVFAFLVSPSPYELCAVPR

Regarding `Cc1onc(-c2ccc(F)cc2)c1COc1ccc2c(n1)CCN(C(=O)CS(C)(=O)=O)C2`, the solubility thermodynamic in [1] amounted to 9.8 µM (≈ 4.5 µg/mL); in data set [7], 142 µM (≈ 65.2 µg/mL). Besides, the IC50 at Cytochrome P450 2D6 was greater than 50 µM. For the same compound, the Kp in data set [2] and in data set [4] was 0.54 throughout. In addition, in data set [3], the no observed adverse effect level (NOAEL) at 96 h was no less than 500 mg/kg. For the same compound, the NOAEL in data set [5] is no less than 100 mg/kg. In data set [6], this compound returned a clearance of 41.3 mL/min/kg. Also, the fraction unbound in data set [8] is 0.023. The Ratio in [9] is reported as 0.93.

In general, IC50 refers to the concentration that gives 50% inhibition. As a reminder, the NOAEL is the highest dose or exposure tested at which no adverse effect was seen. As usually defined, the clearance is the volume of plasma or blood freed of the substance per unit of time. Lower therefore signals inefficient removal.
